From publication PMC3665789 (PLoS ONE, 2013)
Read-outs that look alike come from different tables or passages of the source.

Columns and labels:
HIV-1 NL4.3^AZTres. (X4) = details: read-out: EC50 (µM ± SEM); MT-4 cells; NL4.3 resistant to azidothymidine (AZT); MTS/PES
[1] = test system: HIV-1 ID12 (clinical isolate; R5); details: PBMCs; ID12, group M subtype A/E; p24 Ag ELISA
HIV-1 NL4.3 (X4) = details: read-out: EC50 (µM ± SEM), PBMCs, p24 Ag ELISA
[2] = test system: HSV-1 TK^- RV-117 (clinical isolate); details: HEL cells, CPE
[3] = test system: laboratory-adapted HIV strains
[4] = test system: HIV-induced cell-cell syncytia formation (HUT-78/IIIB and SupT1 cells); assay: Giant cell cocultivation assay (HUT-78/IIIB + SupT1); format: cell-based, HIV-1
Experimental: The cocultivation experiments were performed as described previously. In brief, LabyA1 was diluted in cell culture medium and 100 µl was added in 96-well plate (BD, Falcon) along with the SupT1 T cells (1×10^5 cells/50 µl). The same amount of persistently HIV-infected HUT-78/IIIB cells were seeded and incubated at 37°C for 24 h. The next day, giant cell formation was scored microscopically and in addition the depletion of the CD4^+ SupT1 cells was measured by flow cytometry.
The depletion of the target CD4^+ SupT1 T cells in the cocultivation assays was measured using PE-conjugated […] (BD Biosciences). The cells were incubated for 30 minutes at room temperature with anti-CD28-PE. After several washing steps, the cells were fixed with a 1% paraformaldehyde solution and analyzed by flow cytometry.

HIV-2 ROD (R5/X4) = details: read-out: EC50 (µM ± SEM), MT-4 cells, MTS/PES method
HSV-2 strain G = assay: Time-of-drug-addition study, HSV-2; format: cell-based; details: HEL cells; LabyA1 19 µM, ACV 35 µM; after 3 days
Experimental: TOA experiments for HSV-2 were performed identically as the viral replication assays, but each compound separately (LabyA1 or ACV) was added together with the virus (0 h) or after 2 h post-infection. The reference compound was added at least 100 times its EC50-value, as obtained in the HEL cell line (Table 3).

HIV = details: read-out: anti-HIV activity EC50 range; range over all HIV strains in cell cultures
[5] = test system: HSV-1 wild-type C559142 (clinical isolate); details: HEL cells; HSV-1 C559142; CPE
[6] = test system: HIV-1 UG273 (clinical isolate; R5); details: PBMCs; UG273, group M subtype A; p24 Ag ELISA

C/C=C1\NC(=O)[C@H](Cc2ccccc2)NC(=O)[C@@H]2CCCN2C(=O)[C@H](C(C)C)NC(=O)[C@H](Cc2c[nH]c3ccccc23)NC(=O)[C@]23CSC[C@H](NC1=O)C(=O)N[C@H](C(=O)O)CSSC[C@H](NC(=O)[C@@H]1CSC[C@]4(C[C@H](N)C(=O)N[C@@H](CC(N)=O)C(=O)N[C@@H](C)C(=O)N4)C(=O)N[C@@H](C(C)C)C(=O)N[C@@H](Cc4c[nH]c5ccccc45)C(=O)N[C@@H](CCC(=O)O)C(=O)N1)C(=O)N[C@@H](C2)C(=O)N[C@@H]([C@@H](C)O)C(=O)NCC(=O)N3 [LabyA1, labyrinthopeptin A1]
EC50 (HIV-1 NL4.3^AZTres. (X4)): 1.1 ± 0.1 µM | EC50 [1]: 1.2 ± 0.8 µM | EC50 (HIV-1 NL4.3 (X4)): 0.79 ± 0.09 µM | EC50 [2]: 1.9 ± 0.6 µM | EC50 (HIV-1 clinical isolates; read-out: EC50 range, range over 9 HIV-1 clinical isolates in PBMCs): 0.7 to 1.9 µM | EC50 (HIV-1 clinical isolates; read-out: Median EC50, median over 9 HIV-1 clinical isolates in PBMCs): 1 µM | EC50 ([3]; read-out: EC50 range, range over cell-line adapted HIV strains (Table 1)): 0.79 to 3.3 µM | EC50 ([3]; read-out: Median EC50, median over laboratory-adapted HIV strains in MT-4, PBMCs, MDM): 1.9 µM | activity in cell-cell fusion assay ([4]; 0.96 µM, light microscopy): no activity was observed | giant cell formation ([4]; 4.8 µM, light microscopy): some giant cells were formed | giant cell formation ([4]; 24 µM, light microscopy): completely inhibited | EC50 ([4]; 24 h coculture, CD28 flow cytometry, read-out: EC50, survival of SupT1 T cells in coculture with HUT-78/IIIB cells): 2.5 µM | EC50 (HIV-2 ROD (R5/X4)): 1.9 ± 0.7 µM | HSV-2 induced CPE, compound given simultaneously with virus (0 h) (HSV-2 strain G): no CPE or viral replication were observed | antiviral activity, compound added after 2 h adsorption period (HSV-2 strain G): significant decrease | EC50 (HIV): 0.7 to 3.3 µM | EC50 [5]: 0.45 ± 0.02 µM | EC50 [6]: 1.9 ± 0.1 µM
